Source: patent US7414061B2, “Aryl-isoxazol-4-yl-imidazole derivatives” (Hoffmann-La Roche Inc., priority 2005, dated 2008)

Target: T1, GABA A receptor α5β3γ2 (hα5) (Homo sapiens, UniProt P18507+P31644)
T1 construct: expressed in transfected cells; host or cells: HEK293 (transiently transfected), membrane preparation
Test: [3H]flumazenil competition binding assay, human GABA A α5β3γ2
Settings: displacement of [3H]flumazenil (0.5 nM) from HEK293 cell membranes expressing α5β3γ2; means of two determinations; read-out: Ki[nM] hα5
Description: The affinity of compounds at GABA A receptor subtypes was measured by competition for [3H]flumazenil (85 Ci/mmol; Roche) binding to HEK293 cells expressing rat (stably transfected) or human (transiently transfected) receptors of composition α1β3γ2, α2β3γ2, α3β3γ2 and α5β3γ2.
Cell pellets were suspended in Krebs-tris buffer (4.8 mM KCl, 1.2 mM CaCl2, 1.2 mM MgCl2, 120 mM NaCl, 15 mM Tris; pH 7.5; binding assay buffer), homogenized by polytron for ca. 20 sec on ice and centrifuged for 60 min at 4° C. (50000 g; Sorvall, rotor: SM24=20000 rpm). The cell pellets were resuspended in Krebs-tris buffer and homogenized by polytron for ca. 15 sec on ice. Protein was measured (Bradford method, Bio-Rad) and aliquots of 1 mL were prepared and stored at −80° C.
Radioligand binding assays were carried out in a volume of […] (96-well plates) which contained […] of cell membranes, [3H]flumazenil at a concentration of 1 nM for α1, α2, α3 subunits and 0.5 nM for α5 subunits and the test compound in the range of […]. Nonspecific binding was defined by 10^−5 M diazepam and typically represented less than 5% of the total binding. Assays were incubated to equilibrium for 1 hour at 4° C. and harvested onto GF/C uni-filters (Packard) by filtration using a Packard harvester and washing with ice-cold wash buffer (50 mM Tris; pH 7.5). After drying, filter-retained radioactivity was detected by liquid scintillation counting. Ki values were calculated using Excel-Fit (Microsoft) and are the means of two determinations.

Row | Compound | Ki [nM]
1 | Cc1cccc(-n2cnc(-c3c(-c4ccc(F)cc4)noc3C)c2)c1 [Example 118, 3-(4-Fluoro-phenyl)-5-methyl-4-(1-m-tolyl-1H-imidazol-4-yl)-isoxazole] | 29
2 | Cc1onc(-c2ccccc2)c1-c1cn(-c2ccc(C#N)cc2)cn1 [Example 16, 4-[4-(5-Methyl-3-phenyl-isoxazol-4-yl)-imidazol-1-yl]-benzonitrile] | 15.1
3 | Cc1onc(-c2ccccc2)c1-c1cn(-c2cccc([N+](=O)[O-])c2)cn1 [Example 82, 5-Methyl-4-[1-(3-nitro-phenyl)-1H-imidazol-4-yl]-3-phenyl-isoxazole] | 19.5
4 | Cc1onc(-c2cccc(F)c2)c1-c1cn(-c2ccc(C(=O)NCc3ccccn3)cc2)cn1 [Example 106, 4-{4-[3-(3-Fluoro-phenyl)-5-methyl-isoxazol-4-yl]-imidazol-1-yl}-N-pyridin-2-ylmethyl-benzamide] | 32.1
5 | Cc1onc(-c2ccccc2)c1-c1cn(-c2cccc(Cl)c2)cn1 [Example 5, 4-[1-(3-Chloro-phenyl)-1H-imidazol-4-yl]-5-methyl-3-phenyl-isoxazole] | 29.1
6 | Cc1onc(-c2ccccc2)c1-c1cn(-c2ccc(C(=O)NC3CCOCC3)cc2)cn1 [Example 77, 4-[4-(5-Methyl-3-phenyl-isoxazol-4-yl)-imidazol-1-yl]-N-(tetrahydro-pyran-4-yl)-benzamide] | 27.3
7 | Cc1onc(-c2ccc(Br)cc2)c1-c1cn(-c2ccc([N+](=O)[O-])cc2)cn1 [Example 50, 3-(4-Bromo-phenyl)-5-methyl-4-[1-(4-nitro-phenyl)-1H-imidazol-4-yl]-isoxazole] | 21.6
8 | COC(=O)c1ccc(-n2cnc(-c3c(-c4ccc(F)cc4)noc3C)c2)cc1 [Example 125, 4-{4-[3-(4-Fluoro-phenyl)-5-methyl-isoxazol-4-yl]-imidazol-1-yl}-benzoic acid methyl ester] | 13.6
9 | Cc1onc(-c2ccccc2)c1-c1cn(-c2ccc([N+](=O)[O-])cc2)c(CO)n1 [Example 147, [4-(5-Methyl-3-phenyl-isoxazol-4-yl)-1-(4-nitro-phenyl)-1H-imidazol-2-yl]-methanol] | 18.1
10 | CC(=O)c1ccc(-n2cnc(-c3c(-c4ccccc4)noc3C3CC3)c2)cc1 [Example 135, 1-{4-[4-(5-Cyclopropyl-3-phenyl-isoxazol-4-yl)-imidazol-1-yl]-phenyl}-ethanone] | 1.64
11 | Cc1onc(-c2ccccc2)c1-c1cn(-c2cccc(C(=O)NC3CC3)c2)cn1 [Example 84, N-Cyclopropyl-3-[4-(5-methyl-3-phenyl-isoxazol-4-yl)-imidazol-1-yl]-benzamide] | 31.8
12 | Cc1onc(-c2cccc(F)c2)c1-c1cn(-c2ccc(C(=O)NC3CC3)cc2)cn1 [Example 98, N-Cyclopropyl-4-{4-[3-(3-fluoro-phenyl)-5-methyl-isoxazol-4-yl]-imidazol-1-yl}-benzamide] | 17.7
13 | CCOc1ccc(-n2cnc(-c3c(-c4ccccc4)noc3C)c2)cc1 [Example 19, 4-[1-(4-Ethoxy-phenyl)-1H-imidazol-4-yl]-5-methyl-3-phenyl-isoxazole] | 28.7
14 | Cc1onc(-c2ccc(F)cc2)c1-c1cn(-c2cccc(F)c2)cn1 [Example 119, 3-(4-Fluoro-phenyl)-4-[1-(3-fluoro-phenyl)-1H-imidazol-4-yl]-5-methyl-isoxazole] | 33.7
15 | Cc1onc(-c2ccccc2)c1-c1cn(-c2ccccc2)cn1 [Example 2, 5-Methyl-3-phenyl-4-(1-phenyl-1H-imidazol-4-yl)-isoxazole] | 21.7
16 | CC(=O)c1ccc(-n2cnc(-c3c(-c4ccc(Br)cc4)noc3C)c2)cc1 [Example 49, 1-(4-{4-[3-(4-Bromo-phenyl)-5-methyl-isoxazol-4-yl]-imidazol-1-yl}-phenyl)-ethanone] | 9.1
17 | Cc1onc(-c2ccccc2)c1-c1cn(-c2ccc(C(=O)NCc3ccncc3)cc2)cn1 [Example 79, 4-[4-(5-Methyl-3-phenyl-isoxazol-4-yl)-imidazol-1-yl]-N-pyridin-4-ylmethyl-benzamide] | 14
18 | N#Cc1ccc(-n2cnc(-c3c(-c4ccccc4)noc3CO)c2)cc1 [Example 139, 4-[4-(5-Hydroxymethyl-3-phenyl-isoxazol-4-yl)-imidazol-1-yl]-benzonitrile] | 28.2
19 | Cc1onc(-c2ccccc2)c1-c1cn(-c2ccc(C(=O)NC3CCC3)cc2)cn1 [Example 75, N-Cyclobutyl-4-[4-(5-methyl-3-phenyl-isoxazol-4-yl)-imidazol-1-yl]-benzamide] | 2.7

Row | Compound | Ki [nM]
20 | Cc1onc(-c2ccccc2)c1-c1cn(-c2ccc([N+](=O)[O-])cc2)c(COCc2ccccn2)n1 [Example 161, 2-[4-(5-Methyl-3-phenyl-isoxazol-4-yl)-1-(4-nitro-phenyl)-1H-imidazol-2-ylmethoxymethyl]-pyridine] | 16.3
21 | Cc1onc(-c2ccc(F)cc2)c1-c1cn(-c2ccc([N+](=O)[O-])cc2)cn1 [Example 47, 3-(4-Fluoro-phenyl)-5-methyl-4-[1-(4-nitro-phenyl)-1H-imidazol-4-yl]-isoxazole] | 16.6
22 | CCc1onc(-c2ccc(F)cc2)c1-c1cn(-c2ccc([N+](=O)[O-])cc2)cn1 [Example 134, 5-Ethyl-3-(4-fluoro-phenyl)-4-[1-(4-nitro-phenyl)-1H-imidazol-4-yl]-isoxazole] | 12.7
23 | Cc1onc(-c2ccc(Br)cc2)c1-c1cn(-c2ncccn2)cn1 [Example 51, 2-{4-[3-(4-Bromo-phenyl)-5-methyl-isoxazol-4-yl]-imidazol-1-yl}-pyrimidine] | 28.5
24 | COc1ccc(-n2cnc(-c3c(-c4ccccc4F)noc3C)c2)cc1 [Example 38, 3-(2-Fluoro-phenyl)-4-[1-(4-methoxy-phenyl)-1H-imidazol-4-yl]-5-methyl-isoxazole] | 24
25 | Cc1onc(-c2ccccc2)c1-c1cn(-c2ccc(F)cc2)cn1 [Example 3, 4-[1-(4-Fluoro-phenyl)-1H-imidazol-4-yl]-5-methyl-3-phenyl-isoxazole] | 29.6
26 | Cc1onc(-c2ccccc2)c1-c1cn(-c2ncccn2)cn1 [Example 33, 2-[4-(5-Methyl-3-phenyl-isoxazol-4-yl)-imidazol-1-yl]-pyrimidine] | 15
27 | Cc1onc(-c2ccccc2)c1-c1cn(-c2ccccc2)c(COCc2ccccc2)n1 [Example 146, 4-(2-Benzyloxymethyl-1-phenyl-1H-imidazol-4-yl)-5-methyl-3-phenyl-isoxazole] | 17.1
28 | Cc1cccc(COCc2nc(-c3c(-c4ccccc4)noc3C)cn2-c2ccc([N+](=O)[O-])cc2)n1 [Example 162, 2-Methyl-6-[4-(5-methyl-3-phenyl-isoxazol-4-yl)-1-(4-nitro-phenyl)-1H-imidazol-2-ylmethoxymethyl]-pyridine] | 28.2
29 | CCOc1ccccc1-n1cnc(-c2c(-c3ccccc3)noc2C)c1 [Example 20, 4-[1-(2-Ethoxy-phenyl)-1H-imidazol-4-yl]-5-methyl-3-phenyl-isoxazole] | 32.4
30 | Cc1onc(-c2ccccc2)c1-c1cn(-c2ccc(C(=O)NCCCN3CCOCC3)cc2)cn1 [Example 73, 4-[4-(5-Methyl-3-phenyl-isoxazol-4-yl)-imidazol-1-yl]-N-(3-morpholin-4-yl-propyl)-benzamide] | 14.6
31 | Cc1onc(-c2ccccc2)c1-c1cn(-c2ccc(C(F)(F)F)cc2)c(COCc2ccccc2)n1 [Example 64, 4-[2-Benzyloxymethyl-1-(4-trifluoromethyl-phenyl)-1H-imidazol-4-yl]-5-methyl-3-phenyl-isoxazole] | 14.7
32 | Cc1onc(-c2ccccc2)c1-c1cn(-c2ccc([N+](=O)[O-])cc2)c(CCl)n1 [Example 148, 4-[2-Chloromethyl-1-(4-nitro-phenyl)-1H-imidazol-4-yl]-5-methyl-3-phenyl-isoxazole] | 23.3
33 | 5-Ethyl-4-[1-(4-nitro-phenyl)-1H-imidazol-4-yl]-3-phenyl-isoxazole [Example 31] | 5
34 | Cc1ccc(COCc2nc(-c3c(-c4ccccc4)noc3C)cn2-c2ccc([N+](=O)[O-])cc2)cc1 [Example 153, 5-Methyl-4-[2-(4-methyl-benzyloxymethyl)-1-(4-nitro-phenyl)-1H-imidazol-4-yl]-3-phenyl-isoxazole] | 17.3
35 | Cc1onc(-c2ccccc2)c1-c1cn(-c2ccc(C(=O)NC3CCCC3)cc2)cn1 [Example 76, N-Cyclopentyl-4-[4-(5-methyl-3-phenyl-isoxazol-4-yl)-imidazol-1-yl]-benzamide] | 10.9
36 | C#CCNC(=O)c1ccc(-n2cnc(-c3c(-c4cccc(F)c4)noc3C)c2)cc1 [Example 97, 4-{4-[3-(3-Fluoro-phenyl)-5-methyl-isoxazol-4-yl]-imidazol-1-yl}-N-prop-2-ynyl-benzamide] | 10
37 | 4-{4-[3-(3-Fluoro-phenyl)-5-methyl-isoxazol-4-yl]-imidazol-1-yl}-N-[2-(1H-imidazol-4-yl)-ethyl]-benzamide [Example 104] | 31.5
38 | Cc1onc(-c2ccccc2)c1-c1cn(-c2ccccn2)cn1 [Example 32, 2-[4-(5-Methyl-3-phenyl-isoxazol-4-yl)-imidazol-1-yl]-pyridine] | 19.3
